Results published in PubChem BioAssay AID1963982 (Molecular Pharmacology Branch, DTP, NCI, 2024).

System: 313798-341-R-J2-PDC spheroids, viability
Assay: Anticancer human tumor 313798-341-R-J2-PDC patient-derived cervical squamous cell carcinoma cell line growth inhibition [PI3K]
Conditions: spheroids with HUVEC and MSC; for IC50: curve of first compound; for viability, T/C: stronger effect = lower value
Excerpt: Combinatorial screen of targeted agents with the PI3K inhibitors inavolisib, alpelisib, duvelisib, and copanlisib in multi-cell type tumor spheroids
A high-throughput screen of multi-cell type tumor spheroids was designed to identify active combinations of targeted small molecules and PI3K pathway inhibitors. Complex spheroids include a stromal component modeled by human endothelial cells (HUVEC) and fibroblasts modeled by human mesenchymal stem cells (MSCs). The concentration ranges selected for each drug and investigational agent were based upon clinically achievable concentrations if the clinical Cmax of the agent was known.
Compounds. The drugs and investigational agents: inavolisib (NSC800729), alpelisib (NSC765974), duvelisib (NSC772469), copanlisib (NSC816437), ipatasertib (NSC767898), afuresertib (NSC778305), talazoparib (NSC767125), sapanisertib (NSC764658), selumetinib (NSC741078), tovorafenib (DAY101, NSC766906), vemurafenib (NSC761431), ravoxertinib (NSC781343), sotorasib (NSC818433), MRTX1133 (NSC 836407), abemaciclib (NSC 768073), palbociclib (NSC758247), venetoclax (NSC 766270), SY5609 (NSC837396), enzalutamide (NSC755605), and darolutamide (NSC825331), were obtained from the National Cancer Institute (NCI) Developmental Therapeutics Program Chemical Repository. The FDA-approved anticancer drug set is available from the NCI Developmental Therapeutics Program. […] The stock solutions were prepared in dimethyl sulfoxide (DMSO, Sigma-Aldrich, St. Louis, MO, cat. D2650) at 800-fold the tested concentration and stored at -70 degrees C prior to their use. All drugs and investigational agents were tested over a range starting from a high concentration at or near the clinical Cmax and decreasing in half-log increments. If the clinical Cmax for an agent had not been determined, the highest concentration tested was 10 microM.
Cell Culture. All cells were maintained in an incubator at 37 degrees C and 5% CO2 with 95% humidity. The PDC lines were cultured according to standard operating procedures established by the NCI PDMR (https://pdmr.cancer.gov/sops/default.htm). All PDCs were thawed and cultured in Matrigel-coated flasks prepared with a working solution of 1X Ham's F-12 nutrient mix, without supplementation (Invitrogen, Waltham, MA, cat. 11765054), 100 U/mL penicillin-streptomycin (Invitrogen, cat. 15140122), and 2.5% Matrigel (Corning Inc., Corning, NY, cat. 354248) for the first three passages. The 354836-022-R-J1-PDC, 475296-252-R-J1-PDC, and 997726-040-R-J2-PDC lines were cultured in 6A media, which includes advanced DMEM/F-12 (Thermo Fisher Scientific, cat. 12634028), 10 mM HEPES (Thermo Fisher Scientific, cat. 15630080), 1X GlutaMAX supplement (Thermo Fisher Scientific, cat. 35050061), 0.1 mg/mL primocin (InvivoGen, San Diego, CA, cat. ant-pm-2), 10% defined fetal bovine serum, heat inactivated (HyClone Laboratories Inc., Logan, UT, cat. SH30070.03HI), 50% L-WRN conditioned media (ATCC, cat. CRL-3276), 1.25 mM N-Acetyl-L-cysteine (Sigma-Aldrich, cat. A9165), 10 mM nicotinamide (Sigma-Aldrich, cat. N0636), 1X B-27 supplement (Thermo Fisher Scientific, cat. 17504044), 1X N-2 supplement (Thermo Fisher Scientific, cat. 17502048), and 10 microM Y-27632 dihydrochloride (Tocris Bioscience, Bristol, United Kingdom, cat. 1254). The 624824-186-R-J2-PDC line was cultured in 6C/Colon 1B media, which includes all 6A media components plus 50 ng/mL human EGF recombinant protein (Thermo Fisher Scientific, cat. PHG0311). […]

[1] = second compound 0.0316 µM, first compound 0.00316 µM
[2] = second compound 0.0316 µM, first compound 0.01 µM
[3] = second compound 0.0316 µM, first compound 0.0316 µM
[4] = second compound 0.0316 µM, first compound 0.1 µM
[5] = second compound 0.1 µM, first compound 0.00316 µM
[6] = second compound 0.1 µM, first compound 0.01 µM
[7] = second compound 0.1 µM, first compound 0.0316 µM
[8] = second compound 0.1 µM, first compound 0.1 µM
[9] = second compound 0.316 µM, first compound 0.00316 µM
[10] = second compound 0.316 µM, first compound 0.01 µM
[11] = second compound 0.316 µM, first compound 0.0316 µM
[12] = second compound 0.316 µM, first compound 0.1 µM
[13] = second compound 1 µM, first compound 0.00316 µM
[14] = second compound 1 µM, first compound 0.01 µM
[15] = second compound 1 µM, first compound 0.0316 µM
[16] = second compound 1 µM, first compound 0.1 µM
[17] = second compound 3.16 µM, first compound 0.00316 µM
[18] = second compound 3.16 µM, first compound 0.01 µM
[19] = second compound 3.16 µM, first compound 0.0316 µM
[20] = second compound 3.16 µM, first compound 0.1 µM
[21] = second compound 10 µM, first compound 0.00316 µM
[22] = second compound 10 µM, first compound 0.01 µM
[23] = second compound 10 µM, first compound 0.0316 µM
[24] = second compound 10 µM, first compound 0.1 µM
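Further: spheroids exposed to compounds for seven days.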
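Wherever viability, T/C is given: 100% = DMSO vehicle control viability.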

CC(=O)c1c(C)c2cnc(Nc3ccc(N4CCNCC4)cn3)nc2n(C2CCCC2)c1=O + Cc1nc(NC(=O)N2CCCC2C(N)=O)sc1-c1ccnc(C(C)(C)C(F)(F)F)c1
IC50 (second compound 0.0316 µM): > 100 nM
IC50 (second compound 0.1 µM): > 100 nM
IC50 (second compound 0.316 µM): > 100 nM
IC50 (second compound 1 µM): > 100 nM
IC50 (second compound 3.16 µM): > 100 nM
IC50 (second compound 10 µM): < 0.316 nM
viability, T/C (second compound 0.0316 µM, first compound 0.000316 µM): 105%
viability, T/C (second compound 0.0316 µM, first compound 0.001 µM): 96.5%
viability, T/C [1]: 110%
viability, T/C [2]: 105%
viability, T/C [3]: 108%
viability, T/C [4]: 111%
viability, T/C (second compound 0.1 µM, first compound 0.000316 µM): 108%
viability, T/C (second compound 0.1 µM, first compound 0.001 µM): 99.1%
viability, T/C [5]: 107%
viability, T/C [6]: 107%
viability, T/C [7]: 123%
viability, T/C [8]: 110%
viability, T/C (second compound 0.316 µM, first compound 0.000316 µM): 110%
viability, T/C (second compound 0.316 µM, first compound 0.001 µM): 101%
viability, T/C [9]: 96.3%
viability, T/C [10]: 108%
viability, T/C [11]: 104%
viability, T/C [12]: 115%
viability, T/C (second compound 1 µM, first compound 0.000316 µM): 95.2%
viability, T/C (second compound 1 µM, first compound 0.001 µM): 98.1%
viability, T/C [13]: 96%
viability, T/C [14]: 98.7%
viability, T/C [15]: 104%
viability, T/C [16]: 102%
viability, T/C (second compound 3.16 µM, first compound 0.000316 µM): 68.3%
viability, T/C (second compound 3.16 µM, first compound 0.001 µM): 58.9%
viability, T/C [17]: 71.8%
viability, T/C [18]: 69.4%
viability, T/C [19]: 58.4%
viability, T/C [20]: 79%
viability, T/C (second compound 10 µM, first compound 0.000316 µM): 40.4%
viability, T/C (second compound 10 µM, first compound 0.001 µM): 41.7%
viability, T/C [21]: 39.5%
viability, T/C [22]: 33%
viability, T/C [23]: 41.4%
viability, T/C [24]: 36.4%

CCN1CCN(Cc2ccc(Nc3ncc(F)c(-c4cc(F)c5nc(C)n(C(C)C)c5c4)n3)nc2)CC1 + Cc1nc(NC(=O)N2CCCC2C(N)=O)sc1-c1ccnc(C(C)(C)C(F)(F)F)c1
IC50 (second compound 0.0316 µM): > 1000 nM
IC50 (second compound 0.1 µM): > 1000 nM
IC50 (second compound 0.316 µM): > 1000 nM
IC50 (second compound 1 µM): > 1000 nM
IC50 (second compound 3.16 µM): > 1000 nM
IC50 (second compound 10 µM): < 3.16 nM
viability, T/C [1]: 106%
viability, T/C [2]: 104%
viability, T/C [3]: 109%
viability, T/C [4]: 108%
viability, T/C (second compound 0.0316 µM, first compound 0.316 µM): 131%
viability, T/C (second compound 0.0316 µM, first compound 1 µM): 129%
viability, T/C [5]: 100%
viability, T/C [6]: 104%
viability, T/C [7]: 111%
viability, T/C [8]: 104%
viability, T/C (second compound 0.1 µM, first compound 0.316 µM): 126%
viability, T/C (second compound 0.1 µM, first compound 1 µM): 131%
viability, T/C [9]: 96.9%
viability, T/C [10]: 102%
viability, T/C [11]: 112%
viability, T/C [12]: 112%
viability, T/C (second compound 0.316 µM, first compound 0.316 µM): 114%
viability, T/C (second compound 0.316 µM, first compound 1 µM): 114%
viability, T/C [13]: 93.2%
viability, T/C [14]: 102%
viability, T/C [15]: 94.2%
viability, T/C [16]: 110%
viability, T/C (second compound 1 µM, first compound 0.316 µM): 88.2%
viability, T/C (second compound 1 µM, first compound 1 µM): 80.9%
viability, T/C [17]: 63.6%
viability, T/C [18]: 62.6%
viability, T/C [19]: 56.2%
viability, T/C [20]: 59.9%
viability, T/C (second compound 3.16 µM, first compound 0.316 µM): 58.4%
viability, T/C (second compound 3.16 µM, first compound 1 µM): 69%
viability, T/C [21]: 37%
viability, T/C [22]: 37.4%
viability, T/C [23]: 34.3%
viability, T/C [24]: 35.8%
viability, T/C (second compound 10 µM, first compound 0.316 µM): 41.4%
viability, T/C (second compound 10 µM, first compound 1 µM): 45.8%
